# Test results: article PMC6147133, “The Toxoplasma gondii Active Serine Hydrolase 4 Regulates Parasite Division and Intravacuolar Parasite Architecture” (mSphere, 2018)
# Target: T1, rASH4 (ASH4) (Toxoplasma gondii, UniProt A0A125YZ56)
# T1 construct: full-length ORF from RH cDNA, N-terminal 6xHis tag (pET-28A, pIF22), E. coli BL21-CodonPlus(DE3)-RIL; active-site S124, G2 myristoylation site
# T1 sequence (A0A125YZ56 1-260): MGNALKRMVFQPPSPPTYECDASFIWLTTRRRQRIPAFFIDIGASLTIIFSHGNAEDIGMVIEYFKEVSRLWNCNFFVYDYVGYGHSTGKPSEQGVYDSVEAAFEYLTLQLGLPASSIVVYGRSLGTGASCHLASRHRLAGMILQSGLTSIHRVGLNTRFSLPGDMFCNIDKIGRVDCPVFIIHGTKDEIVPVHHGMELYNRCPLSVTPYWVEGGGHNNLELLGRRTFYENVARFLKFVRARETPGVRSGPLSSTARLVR
# Assay: fluorogenic hydrolysis assay
# Type: biochemical
# Conditions: 10 uM substrate, 150 nM enzyme
smiles,measurement,value
"CC(=O)Oc1ccc2c(C)cc(=O)oc2c1 [4MU-acetate, 4-methyl-2-oxo-2H-chromen-7-yl acetate]",fluorogenic hydrolysis assay,with the two-carbon acetyl ester having the highest rate of hydrolysis
